Source: the supplement of paper PMC8566230
± gives the standard deviation of the averaged measurements.

Columns and labels:
Assay in all cases: cell viability with growth factor relative to same drug with BSA mock; higher = growth factor protects cells from drug (more viable cells)
Details in all cases: treatment time: 6 days
Kelly = system: Kelly
Protocol: (§1)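 Six neuroblastoma cell lines were treated with a kinase inhibitor or vincristine at a fixed dose (70–90% lethal) plus a growth factor (100 ng/ml) or 0.1% BSA mock for 72 h. Drugs and growth factors were then renewed for another 72 h (6 days total). Viability was read by XTT in triplicate and normalised to the same drug plus BSA (=100%).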

LAN-1 = system: LAN-1
Protocol: as §1

SH-SY5Y = system: SH-SY5Y
Protocol: as §1

SK-N-AS = system: SK-N-AS
Protocol: as §1

SK-N-BE = system: SK-N-BE
Protocol: as §1

SK-N-SH = system: SK-N-SH
Protocol: as §1

C[C@@H](Oc1cc(-c2cnn(C3CCNCC3)c2)cnc1N)c1c(Cl)ccc(F)c1Cl [crizotinib]
cell viability with growth factor [%]
Details	added growth factor (100 ng/ml): BDNF	added growth factor (100 ng/ml): EPO	added growth factor (100 ng/ml): HGF	added growth factor (100 ng/ml): IGF-1	added growth factor (100 ng/ml): NGF	added growth factor (100 ng/ml): SCF
Kelly, drug concentration: 1 uM	352 ± 40	365 ± 77	112 ± 35	176 ± 5.4	300 ± 15	107 ± 25
LAN-1, drug concentration: 2.5 uM	232 ± 53	241 ± 35	227 ± 46	186 ± 23	359 ± 36	142 ± 20
SH-SY5Y, drug concentration: 2.5 uM	118 ± 23	137 ± 13	174 ± 30	101 ± 24	184 ± 51	120 ± 11
SK-N-AS, drug concentration: 5 uM	103 ± 4.9	89.6 ± 9.9	106 ± 51	130 ± 2.1	73.9 ± 16	106 ± 19
SK-N-BE, drug concentration: 5 uM	422 ± 55	123 ± 85	88.9 ± 4.9	291 ± 44	173 ± 82	121 ± 22
SK-N-SH, drug concentration: 1 uM	122 ± 3.9	111 ± 5.7	82.7 ± 14	90.8 ± 22	210 ± 22	95.3 ± 19

CNC(=O)c1ccccc1Sc1ccc2c(/C=C/c3ccccn3)n[nH]c2c1 [axitinib]
cell viability with growth factor [%]
Details	added growth factor (100 ng/ml): BDNF	added growth factor (100 ng/ml): EPO	added growth factor (100 ng/ml): HGF	added growth factor (100 ng/ml): IGF-1	added growth factor (100 ng/ml): NGF	added growth factor (100 ng/ml): SCF
Kelly, drug concentration: 10 uM	143 ± 2	177 ± 19	94.1 ± 20	57.3 ± 21	148 ± 2.5	106 ± 12
LAN-1, drug concentration: 5 uM	112 ± 12	173 ± 13	93 ± 28	98.5 ± 17	159 ± 30	117 ± 8.8
SH-SY5Y, drug concentration: 2.5 uM	104 ± 15	138 ± 23	95.7 ± 17	80.7 ± 16	137 ± 12	107 ± 2.2
SK-N-AS, drug concentration: 5 uM	95.7 ± 6.5	101 ± 7.1	85.5 ± 27	48.7 ± 2.5	96.1 ± 8	99 ± 6.2
SK-N-BE, drug concentration: 5 uM	103 ± 34	142 ± 8.8	100 ± 21	255 ± 41	122 ± 30	149 ± 32
SK-N-SH, drug concentration: 10 uM	109.9 ± 0.6	177 ± 27	96.8 ± 21	60 ± 5.2	118 ± 6.3	83.5 ± 19

Cc1nc(Nc2ncc(C(=O)Nc3c(C)cccc3Cl)s2)cc(N2CCN(CCO)CC2)n1 [dasatinib]
cell viability with growth factor [%]
Details	added growth factor (100 ng/ml): BDNF	added growth factor (100 ng/ml): EPO	added growth factor (100 ng/ml): HGF	added growth factor (100 ng/ml): IGF-1	added growth factor (100 ng/ml): NGF	added growth factor (100 ng/ml): SCF
Kelly, drug concentration: 500 nM	86.8 ± 2.7	238 ± 40	198 ± 9.8	292 ± 36	164 ± 34	95.8 ± 9.8
LAN-1, drug concentration: 5 nM	93.1 ± 4.4	228 ± 30	129 ± 14	138 ± 19	273 ± 23	97.6 ± 14
SH-SY5Y, drug concentration: 25 nM	131 ± 13	320 ± 21	97 ± 28	135 ± 13	217 ± 38	169 ± 6.2
SK-N-AS, drug concentration: 50 nM	117 ± 16	108 ± 8.2	134 ± 14	235 ± 27	104 ± 7.1	82.7 ± 13
SK-N-BE, drug concentration: 500 nM	90.9 ± 20	130 ± 5.7	111 ± 27	185 ± 19	83.6 ± 3.1	146 ± 12
SK-N-SH, drug concentration: 500 nM	99.7 ± 1	126 ± 5.9	151 ± 4.3	205 ± 33	116 ± 15	113 ± 22

COc1cc2nccc(Oc3ccc(NC(=O)C4(C(=O)Nc5ccc(F)cc5)CC4)cc3)c2cc1OC [cabozantinib]
cell viability with growth factor [%]
Details	added growth factor (100 ng/ml): BDNF	added growth factor (100 ng/ml): EPO	added growth factor (100 ng/ml): HGF	added growth factor (100 ng/ml): IGF-1	added growth factor (100 ng/ml): NGF	added growth factor (100 ng/ml): SCF
Kelly, drug concentration: 5 uM	109 ± 1.2	118 ± 3.6	84.5 ± 11	73 ± 30	133 ± 21	101 ± 8.5
LAN-1, drug concentration: 5 uM	125 ± 8.8	160 ± 35	168 ± 11	123 ± 11	161 ± 27	93.5 ± 13
SH-SY5Y, drug concentration: 2.5 uM	114 ± 22	127 ± 21	151 ± 9.4	139 ± 33	183 ± 25	81.1 ± 16
SK-N-AS, drug concentration: 7.5 uM	124 ± 15	99 ± 3.2	108 ± 12	84.9 ± 18	95.9 ± 3.2	96.9 ± 10
SK-N-BE, drug concentration: 7.5 uM	278 ± 42	200 ± 25	248 ± 48	316 ± 30	191 ± 8.9	251 ± 44
SK-N-SH, drug concentration: 5 uM	153 ± 14	110.1 ± 0.79	94.5 ± 8.7	59.6 ± 6.7	153 ± 3.5	124 ± 13

Cc1ccc(NC(=O)c2ccc(CN3CCN(C)CC3)cc2)cc1Nc1nccc(-c2cccnc2)n1 [imatinib]
cell viability with growth factor [%]
Details	added growth factor (100 ng/ml): BDNF	added growth factor (100 ng/ml): EPO	added growth factor (100 ng/ml): HGF	added growth factor (100 ng/ml): IGF-1	added growth factor (100 ng/ml): NGF	added growth factor (100 ng/ml): SCF
Kelly, drug concentration: 25 uM	165 ± 36	184 ± 21	167 ± 46	145 ± 15	125 ± 3.2	134 ± 11
LAN-1, drug concentration: 20 uM	101 ± 4.4	121 ± 7.4	86.4 ± 27	117 ± 5.8	135 ± 18	99.4 ± 9.5
SH-SY5Y, drug concentration: 25 uM	94.8 ± 19	166 ± 25	106 ± 12	99.5 ± 3.6	207 ± 39	111 ± 7.6
SK-N-AS, drug concentration: 20 uM	104 ± 18	103 ± 22	123 ± 46	134 ± 24	111 ± 5.8	112 ± 19
SK-N-BE, drug concentration: 25 uM	103 ± 11	217 ± 32	103 ± 17	124 ± 5.7	179 ± 16	76.9 ± 2.5
SK-N-SH, drug concentration: 25 uM	106 ± 16	121 ± 10	143 ± 32	110 ± 36	110 ± 15	98.2 ± 18

CC[C@]1(O)C[C@H]2CN(CCc3c([nH]c4ccccc34)[C@@](C(=O)OC)(c3cc4c(cc3OC)N(C=O)[C@H]3[C@@](O)(C(=O)OC)[C@H](OC(C)=O)[C@]5(CC)C=CCN6CC[C@]43[C@@H]65)C2)C1 [vincristine]
cell viability with growth factor [%]
Details	added growth factor (100 ng/ml): BDNF	added growth factor (100 ng/ml): EPO	added growth factor (100 ng/ml): HGF	added growth factor (100 ng/ml): IGF-1	added growth factor (100 ng/ml): NGF	added growth factor (100 ng/ml): SCF
Kelly, drug concentration: 5 nM	86.8 ± 27	89.5 ± 19	95.4 ± 11	200 ± 22	70.2 ± 8	99.2 ± 12
LAN-1, drug concentration: 5 nM	84.5 ± 2.9	151 ± 11	116 ± 17	99.3 ± 29	92.4 ± 13	116 ± 28
SH-SY5Y, drug concentration: 25 nM	110 ± 12	149 ± 18	108 ± 23	110 ± 20	208 ± 19	97.4 ± 16
SK-N-AS, drug concentration: 5 nM	95 ± 8.7	78.5 ± 19	124 ± 7.1	219 ± 6.4	88.2 ± 6.7	97.3 ± 13
SK-N-BE, drug concentration: 20 nM	98 ± 21	171 ± 42	97.5 ± 6	116 ± 24	137 ± 5.2	128 ± 12
SK-N-SH, drug concentration: 5 nM	98 ± 4.7	152 ± 6.7	97.7 ± 12	142 ± 9.5	129 ± 13	88.1 ± 8.1
